In brackets after ≈: the same amount, converted by molar mass.
Legend:
E. coli 25922 = assay: Antibacterial activity, microbroth dilution MIC (Table 1); type: cell-based, Escherichia coli; details: Escherichia coli; microbroth dilution; control Gram-negative E. coli 25922 strain; read-out: MIC, 25922
How it was run: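 Growth inhibition by microbroth dilution. MIC = lowest μg/mL with no visible growth. Strain 25922 is the control Gram-negative; BAS849 is hypersensitive.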

E. coli LZ3111 = assay: Antibacterial activity, MIC, quinolone resistant strain (Table 2); type: cell-based; details: Escherichia coli, LZ3111, read-out: MIC LZ3111
How it was run: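 Lowest concentration giving no macroscopically visible growth was taken as the MIC (μg/mL) after microbroth dilution testing.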

[1] = tested on: Escherichia coli (E. coli) BAS849; assay: Antibacterial activity, microbroth dilution MIC (Table 1); type: cell-based; details: microbroth dilution, super sensitive Gram-negative E. coli BAS849, read-out: MIC, BAS849
How it was run: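 Broth microdilution; endpoint = no macroscopic growth; value = lowest inhibiting concn, μg/mL.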

[2] = tested on: Staphylococcus aureus (S. aureus) 29213; assay: as above; type: cell-based; details: microbroth dilution, Gram-positive S. aureus 29213, read-out: MIC, 29213
How it was run: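 Lowest concentration stopping macroscopically visible growth under test conditions, by broth microdilution, defines the MIC (μg/mL).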

SMILES | MIC (E. coli 25922) [µg/mL] | MIC (E. coli LZ3111) [µg/mL] | MIC [1] [µg/mL] | MIC [2] [µg/mL]
CCc1c(-c2ccc3c(c2)cc(CN2CCC(c4ccncc4)C2)n3C)[nH]c(=O)c(C(=O)O)c1O (centres unmarked) [Cpd 268, 5-ethyl-4-hydroxy-6-(1-methyl-2-((3-(pyridin-4-yl)pyrrolidin-1-yl)methyl)-1H-indol-5-yl)-2-oxo-1,2-dihydropyridine-3-carboxylic acid] | 3.5 to 12.5 (≈ 7.41 to 26.5 µM) | 12.5 to 150 (≈ 26.5 to 317 µM) | < 1 | 3.5 to 12.5 (≈ 7.41 to 26.5 µM)
CCc1c(-c2ccc3c(c2)cc(CN2CC(C(=O)O)C2)n3C)[nH]c(=O)c(C(=O)O)c1O [Cpd 269, 6-(2-((3-carboxyazetidin-1-yl)methyl)-1-methyl-1H-indol-5-yl)-5-ethyl-4-hydroxy-2-oxo-1,2-dihydropyridine-3-carboxylic acid] | 12.5 to 150 (≈ 29.4 to 353 µM) | 12.5 to 150 (≈ 29.4 to 353 µM) | 3.5 to 12.5 (≈ 8.23 to 29.4 µM) | 12.5 to 150 (≈ 29.4 to 353 µM)
CCc1c(-c2ccc3c(c2)cc(CN2CC(C(=O)N(C)C)C2)n3C)[nH]c(=O)c(C(=O)O)c1O [Cpd 270, 6-(2-((3-(dimethylcarbamoyl)azetidin-1-yl)methyl)-1-methyl-1H-indol-5-yl)-5-ethyl-4-hydroxy-2-oxo-1,2-dihydropyridine-3-carboxylic acid] | 3.5 to 12.5 (≈ 7.73 to 27.6 µM) | 12.5 to 150 (≈ 27.6 to 331 µM) | < 1 | 3.5 to 12.5 (≈ 7.73 to 27.6 µM)
CCc1c(-c2ccc3c(c2)cc(CN[C@H](C)C(F)(F)F)n3C)[nH]c(=O)c(C(=O)O)c1O [Cpd 272, (R)-5-ethyl-4-hydroxy-6-(1-methyl-2-((1,1,1-trifluoropropan-2-ylamino)methyl)-1H-indol-5-yl)-2-oxo-1,2-dihydropyridine-3-carboxylic acid] | 12.5 to 150 (≈ 28.6 to 343 µM) | 12.5 to 150 (≈ 28.6 to 343 µM) | < 1 | 1 to 3.5 (≈ 2.29 to 8 µM)
CCc1c(-c2ccc3c(c2)cc(CN[C@@H](C)C(F)(F)F)n3C)[nH]c(=O)c(C(=O)O)c1O [Cpd 273, (S)-5-ethyl-4-hydroxy-6-(1-methyl-2-((1,1,1-trifluoropropan-2-ylamino)methyl)-1H-indol-5-yl)-2-oxo-1,2-dihydropyridine-3-carboxylic acid] | 12.5 to 150 (≈ 28.6 to 343 µM) | 12.5 to 150 (≈ 28.6 to 343 µM) | < 1 | 3.5 to 12.5 (≈ 8 to 28.6 µM)
CCc1c(-c2ccc3c(c2)cc(CN2C[C@H]4CCC[C@@H](N(C)Cc5ccccc5)[C@H]4C2)n3C)[nH]c(=O)c(C(=O)O)c1O [Cpd 280, 6-(2-(((3aR,4R,7aS)-4-(benzyl(methyl)amino)-1H-isoindol-2(3H,3aH,4H,5H,6H,7H,7aH)-yl)methyl)-1-methyl-1H-indol-5-yl)-5-ethyl-4-hydroxy-2-oxo-1,2-dihydropyridine-3-carboxylic acid] | 12.5 to 150 (≈ 22 to 264 µM) | 12.5 to 150 (≈ 22 to 264 µM) | < 1 | 1 to 3.5 (≈ 1.76 to 6.15 µM)
CCc1c(-c2ccc3c(c2)cc(CN2C[C@H]4CC[C@@H](N(Cc5ccccc5)Cc5ccccc5)[C@H]4C2)n3C)[nH]c(=O)c(C(=O)O)c1O [Cpd 281, 6-(2-(((3aR,4R,6aS)-4-(dibenzylamino)hexahydrocyclopenta[c]pyrrol-2(1H)-yl)methyl)-1-methyl-1H-indol-5-yl)-5-ethyl-4-hydroxy-2-oxo-1,2-dihydropyridine-3-carboxylic acid] | 12.5 to 150 (≈ 19.8 to 238 µM) | 12.5 to 150 (≈ 19.8 to 238 µM) | 12.5 to 150 (≈ 19.8 to 238 µM) | 12.5 to 150 (≈ 19.8 to 238 µM)
CCc1c(-c2ccc3c(c2)cc(CN2C[C@H]4CCC[C@@H](N(Cc5ccccc5)Cc5ccccc5)[C@H]4C2)n3C)[nH]c(=O)c(C(=O)O)c1O [Cpd 283, 6-(2-(((3aR,4R,7aS)-4-(dibenzylamino)-1H-isoindol-2(3H,3aH,4H,5H,6H,7H,7aH)-yl)methyl)-1-methyl-1H-indol-5-yl)-5-ethyl-4-hydroxy-2-oxo-1,2-dihydropyridine-3-carboxylic acid] | 12.5 to 150 (≈ 19.4 to 233 µM) | 12.5 to 150 (≈ 19.4 to 233 µM) | 12.5 to 150 (≈ 19.4 to 233 µM) | 12.5 to 150 (≈ 19.4 to 233 µM)
CCc1c(-c2ccc3c(c2)cc(CN2C[C@H]4C[C@@H](N(Cc5ccccc5)Cc5ccccc5)C[C@H]4C2)n3C)[nH]c(=O)c(C(=O)O)c1O [Cpd 286, 6-(2-(((3aR,5r,6aS)-5-(dibenzylamino)hexahydrocyclopenta[c]pyrrol-2(1H)-yl)methyl)-1-methyl-1H-indol-5-yl)-5-ethyl-4-hydroxy-2-oxo-1,2-dihydropyridine-3-carboxylic acid] | 12.5 to 150 (≈ 19.8 to 238 µM) | 12.5 to 150 (≈ 19.8 to 238 µM) | 12.5 to 150 (≈ 19.8 to 238 µM) | 12.5 to 150 (≈ 19.8 to 238 µM)
CCc1c(-c2ccc3c(c2)cc(CNCc2ccc(F)cc2)n3C)[nH]c(=O)c(C(=O)O)c1O [Cpd 292, 5-ethyl-6-(2-((4-fluorobenzylamino)methyl)-1-methyl-1H-indol-5-yl)-4-hydroxy-2-oxo-1,2-dihydropyridine-3-carboxylic acid] | 1 to 3.5 (≈ 2.22 to 7.79 µM) | 12.5 to 150 (≈ 27.8 to 334 µM) | < 1 | 3.5 to 12.5 (≈ 7.79 to 27.8 µM)
CCc1c(-c2ccc3c(c2)cc(CNCc2ccccc2OC)n3C)[nH]c(=O)c(C(=O)O)c1O [Cpd 293, 5-ethyl-4-hydroxy-6-(2-((2-methoxybenzylamino)methyl)-1-methyl-1H-indol-5-yl)-2-oxo-1,2-dihydropyridine-3-carboxylic acid] | < 1 | 12.5 to 150 (≈ 27.1 to 325 µM) | < 1 | 3.5 to 12.5 (≈ 7.58 to 27.1 µM)
CCc1c(-c2ccc3c(c2)cc(CNCc2cccc(C)c2)n3C)[nH]c(=O)c(C(=O)O)c1O [Cpd 294, 5-ethyl-4-hydroxy-6-(1-methyl-2-((3-methylbenzylamino)methyl)-1H-indol-5-yl)-2-oxo-1,2-dihydropyridine-3-carboxylic acid] | < 1 | 12.5 to 150 (≈ 28.1 to 337 µM) | < 1 | 1 to 3.5 (≈ 2.24 to 7.86 µM)
CCc1c(-c2ccc3c(c2)cc(CNCc2ccccc2C)n3C)[nH]c(=O)c(C(=O)O)c1O [Cpd 295, 5-ethyl-4-hydroxy-6-(1-methyl-2-((2-methylbenzylamino)methyl)-1H-indol-5-yl)-2-oxo-1,2-dihydropyridine-3-carboxylic acid] | 3.5 to 12.5 (≈ 7.86 to 28.1 µM) | 12.5 to 150 (≈ 28.1 to 337 µM) | < 1 | 1 to 3.5 (≈ 2.24 to 7.86 µM)
CCc1c(-c2ccc3c(c2)cc(CNCc2cccc(OC)c2)n3C)[nH]c(=O)c(C(=O)O)c1O [Cpd 296, 5-ethyl-4-hydroxy-6-(2-((3-methoxybenzylamino)methyl)-1-methyl-1H-indol-5-yl)-2-oxo-1,2-dihydropyridine-3-carboxylic acid] | < 1 | 12.5 to 150 (≈ 27.1 to 325 µM) | < 1 | 3.5 to 12.5 (≈ 7.58 to 27.1 µM)
CCc1c(-c2ccc3c(c2)cc(CNCc2ccc(C)cc2)n3C)[nH]c(=O)c(C(=O)O)c1O [Cpd 297, 5-ethyl-4-hydroxy-6-(1-methyl-2-((4-methylbenzylamino)methyl)-1H-indol-5-yl)-2-oxo-1,2-dihydropyridine-3-carboxylic acid] | < 1 | 12.5 to 150 (≈ 28.1 to 337 µM) | < 1 | 1 to 3.5 (≈ 2.24 to 7.86 µM)
CCc1c(-c2ccc3c(c2)cc(CNCc2cccc(F)c2)n3C)[nH]c(=O)c(C(=O)O)c1O [Cpd 298, 5-ethyl-6-(2-((3-fluorobenzylamino)methyl)-1-methyl-1H-indol-5-yl)-4-hydroxy-2-oxo-1,2-dihydropyridine-3-carboxylic acid] | 1 to 3.5 (≈ 2.22 to 7.79 µM) | 12.5 to 150 (≈ 27.8 to 334 µM) | < 1 | 1 to 3.5 (≈ 2.22 to 7.79 µM)
CCc1c(-c2ccc3c(c2)cc(CNCc2ccccc2F)n3C)[nH]c(=O)c(C(=O)O)c1O [Cpd 299, 5-ethyl-6-(2-((2-fluorobenzylamino)methyl)-1-methyl-1H-indol-5-yl)-4-hydroxy-2-oxo-1,2-dihydropyridine-3-carboxylic acid] | 1 to 3.5 (≈ 2.22 to 7.79 µM) | 12.5 to 150 (≈ 27.8 to 334 µM) | < 1 | 1 to 3.5 (≈ 2.22 to 7.79 µM)
